This passage reports IC50 results from BindingDB's records for doi:10.1074/jbc.M110.178376 (University of Pavia, 2011).

This test has as its target Beta-2-microglobulin (Homo sapiens, UniProt P61769). Description: Fluorescence Assay. Conditions: pH 7.4; 37 °C. The text has this:
Inhibition of wild type beta-m fibrillogenesis tetracycline congeners and was follow by thioflavin fluorescence assay.

The structures appear in SMILES notation. Structures can show the parent of a compound that is named as a salt.

Sequence of Beta-2-microglobulin (P61769 whole entry): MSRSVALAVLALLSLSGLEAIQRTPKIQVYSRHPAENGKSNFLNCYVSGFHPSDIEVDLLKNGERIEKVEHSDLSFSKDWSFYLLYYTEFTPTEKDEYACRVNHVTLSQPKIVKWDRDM

As usually defined, the IC50 is the concentration at which inhibition is half-maximal. The low end stands for greater potency in that assay, the high end for weaker potency in that assay. On to `CN(C)[C@H]1C(=O)C(C(N)=O)C(=O)[C@@]2(O)C(=O)C3C(=O)c4c(O)cccc4[C@@](C)(O)C3C(O)C12` (stereo partly drawn) [4-epi-oxytetracycline], for which inhibition was half-maximal at 49 µM (IC50).
`CN(C)[C@@H]1C(=O)C(C(=O)NCN2CCCC2)C(=O)[C@@]2(O)C(=O)C3C(=O)c4c(O)cccc4[C@@](C)(O)[C@H]3C[C@@H]12` (some centres not stated) [Rolitetracycline] yielded an IC50 of 136 µM.
Molecule `C[C@H]1c2cccc(O)c2C(=O)C2C(=O)[C@]3(O)C(=O)C(C(N)=O)C(=O)[C@@H](N(C)C)[C@@H]3[C@@H](O)[C@@H]21` (some centres not stated) returned a 50% inhibitory concentration (IC50) of 47 µM.
`C=C1c2c(Cl)ccc(O)c2C(=O)C2C(=O)[C@]3(O)C(=O)C(C(N)=O)C(=O)[C@@H](N(C)C)[C@@H]3[C@@H](O)[C@H]12` (some centres not stated) [Meclocycline] showed an IC50 of 98 µM.
To `C=C1c2cccc(O)c2C(=O)C2C(=O)[C@]3(O)C(=O)C(C(N)=O)C(=O)[C@@H](N(C)C)[C@@H]3[C@@H](O)[C@H]12` (stereo partly drawn) [(4S,4aR,5S,5aS,12aS)-4-(dimethylamino)-5,10,12a-trihydroxy-1,3,11,12-tetraketo-6-methylene-4a,5,5a,11a-tetrahydro-4H-tetracene-2-carboxamide;hydrochloride] belongs 69 µM; to `CN(C)[C@@H]1C(=O)C(C(N)=O)C(=O)[C@@]2(O)C(=O)C3C(=O)c4c(O)cccc4[C@@](C)(O)[C@H]3[C@H](O)[C@@H]12` (stereo partly drawn) [(2E,4S,4aR,5S,5aR,6S,12aS)-2-[azanyl(oxidanyl)methylidene]-4-(dimethylamino)-6-methyl-5,6,10,11,12a-pentakis(oxidanyl)-4,4a,5,5a-tetrahydrotetracene-1,3,12-trione], 63 µM; to `Cc1c2c(c(O)c3c(O)ccc(Cl)c13)C(=O)[C@]1(O)C(=O)C(C(N)=O)C(=O)[C@@H](N(C)C)[C@@H]1C2` (some centres not stated) [Anhydrochlortetracycline], 136 µM.
